Laboratory results from PMC4890880 (ACS infectious diseases, 2016).
Like-named read-outs stand apart in the source and are kept apart here.

Legend:
[1] = tested on: HepG2-A16-CD81EGFP cells; details: human, 50 uM
[2] = tested on: HepG2-A16-CD81EGFP cells; test: cells; details: Homo sapiens, HepG2, read-out: % inhibition
[3] = tested on: Plasmodium berghei (Pb-Luc) exoerythrocytic-stage parasites; test: microbe, parasite or virus in culture
[4] = read-out: Inhibition% @ 50 uM rep1
[5] = read-out: Inhibition% @ 50 uM rep2

**Q.** Which “HepG2 Tox% @ 50 uM rep1” value [1] does the source give for `CCC(=O)Nc1nnc(Cc2ccc(OC)c(OC)c2)s1` [MMV020942] here?
**A.** The value was -26%.

**Q.** What about the inhibition at 50 µM [2] of the same molecule?
**A.** The inhibition at 50 µM was -25.5%.

**Q.** And the inhibition at 50 µM [3, 4]?
**A.** Its inhibition at 50 µM is -19%.

**Q.** What about the inhibition at 50 µM [3, 5] of the same molecule?
**A.** Its inhibition at 50 µM is -37%.

**Q.** Which “HepG2 Tox% @ 50 uM rep1” value [1] does the source give for `CN(C)c1ccc(N=Cc2ccc(N3CCOCC3)cc2)cc1` [MMV073843] here?
**A.** Its value is -8%.

**Q.** And the inhibition at 50 µM [2]?
**A.** Its inhibition at 50 µM is -8.32%.

**Q.** And the inhibition at 50 µM [3, 4]?
**A.** The inhibition at 50 µM was 88%.

**Q.** What about the inhibition at 50 µM [3, 5] of the same molecule?
**A.** The inhibition at 50 µM was 83%.

**Q.** With `CCOc1ccc(-n2cc(-c3ccccc3)c3c(SCc4cc(C)ccc4C)ncnc32)cc1` [MMV085471] as the molecule, how does the “HepG2 Tox% @ 50 uM rep1” value [1] read?
**A.** The value was -12%.

**Q.** What about the inhibition at 50 µM [2] of the same molecule?
**A.** The inhibition at 50 µM was -12.2%.

**Q.** And the inhibition at 50 µM [3, 4]?
**A.** Its inhibition at 50 µM is 11%.

**Q.** And the inhibition at 50 µM [3, 5]?
**A.** The inhibition at 50 µM was -7%.

**Q.** `O=C(NC1CCN(Cc2ccccc2)CC1)c1cc2nc(-c3ccc(Cl)s3)cc(C(F)(F)F)n2n1` [MMV396635] was tested. Which “HepG2 Tox% @ 50 uM rep1” value [1] did it give?
**A.** The value was -30%.

**Q.** And the inhibition at 50 µM [2]?
**A.** The inhibition at 50 µM was -29.6%.

**Q.** And the inhibition at 50 µM [3, 4]?
**A.** Its inhibition at 50 µM is 7.6%.

**Q.** And the inhibition at 50 µM [3, 5]?
**A.** The inhibition at 50 µM was 24%.

**Q.** Which “HepG2 Tox% @ 50 uM rep2” value [1] does the source give for `CC1(c2ccccc2)Nc2ccccc2-c2nc3ccccc3n21` (stereo not drawn) [MMV396715] here?
**A.** The value was 102%.

**Q.** And the inhibition at 50 µM [2]?
**A.** The inhibition at 50 µM was 98.6%.

**Q.** What about the inhibition at 50 µM [3, 4] of the same molecule?
**A.** The inhibition at 50 µM was 104%.

**Q.** And the inhibition at 50 µM [3, 5]?
**A.** Its inhibition at 50 µM is 106%.

**Q.** What does the source list for `Oc1c(C(Nc2ccccn2)c2cccc(Oc3ccccc3)c2)ccc2cccnc12` (stereo not drawn) [MMV665814]?
**A.** HepG2 Tox% @ 50 uM rep1 [1]: -17%; inhibition at 50 µM [2]: -17.3%; inhibition at 50 µM [3, 4]: -33%; inhibition at 50 µM [3, 5]: -6%

**Q.** `CCC(c1ccccc1)c1nn2c(-c3cccs3)nnc2s1` (stereo not drawn) [MMV665876] was tested. Which “HepG2 Tox% @ 50 uM rep2” value [1] did it give?
**A.** The value was 96%.

**Q.** And the inhibition at 50 µM [2]?
**A.** The inhibition at 50 µM was 93.6%.

**Q.** What about the inhibition at 50 µM [3, 4] of the same molecule?
**A.** The inhibition at 50 µM was 99%.

**Q.** And the inhibition at 50 µM [3, 5]?
**A.** Its inhibition at 50 µM is 103%.

**Q.** Which “HepG2 Tox% @ 50 uM rep2” value [1] does the source give for `O=C(Nc1cccc(-c2nc3ccccc3[nH]2)c1)c1cccc(NC(=O)c2ccco2)c1` [MMV665883] here?
**A.** The value was 99%.

**Q.** And the inhibition at 50 µM [2]?
**A.** Its inhibition at 50 µM is 97.2%.

**Q.** And the inhibition at 50 µM [3, 4]?
**A.** The inhibition at 50 µM was 101%.

**Q.** And the inhibition at 50 µM [3, 5]?
**A.** Its inhibition at 50 µM is 102%.

**Q.** What does the source list for `O=C(Nc1ccccc1O)c1ccc(Oc2cccc(C(=O)Nc3ccccc3O)c2)cc1` [MMV665888]?
**A.** HepG2 Tox% @ 50 uM rep2 [1]: 100%; inhibition at 50 µM [2]: 98.7%; inhibition at 50 µM [3, 4]: 102%; inhibition at 50 µM [3, 5]: 104%

**Q.** `COc1ccc(N2CCN(C(CNC(=O)CC(C)(C)C)c3ccc4c(c3)OCO4)CC2)cc1` (stereo not drawn) [MMV665908] was tested. Which “HepG2 Tox% @ 50 uM rep1” value [1] did it give?
**A.** Its value is -10%.

**Q.** And the inhibition at 50 µM [2]?
**A.** The inhibition at 50 µM was -9.68%.

**Q.** And the inhibition at 50 µM [3, 4]?
**A.** The inhibition at 50 µM was 61%.

**Q.** And the inhibition at 50 µM [3, 5]?
**A.** Its inhibition at 50 µM is 66%.

**Q.** `CCC(C)NCC(O)(c1ccc(Cl)cc1)c1ccc(Cl)cc1` (stereo not drawn) [MMV665928] was tested. Which “HepG2 Tox% @ 50 uM rep2” value [1] did it give?
**A.** The value was 102%.

**Q.** And the inhibition at 50 µM [2]?
**A.** Its inhibition at 50 µM is 99.2%.

**Q.** And the inhibition at 50 µM [3, 4]?
**A.** Its inhibition at 50 µM is 104%.

**Q.** And the inhibition at 50 µM [3, 5]?
**A.** Its inhibition at 50 µM is 106%.

**Q.** For `O=C(NCC1Cc2cccc(-c3ccncc3)c2O1)c1csc2c1CCCC2` (stereo not drawn) [MMV665954], which “HepG2 Tox% @ 50 uM rep2” value [1] is on record?
**A.** Its value is 98%.

**Q.** And the inhibition at 50 µM [2]?
**A.** Its inhibition at 50 µM is 95.9%.

**Q.** And the inhibition at 50 µM [3, 4]?
**A.** Its inhibition at 50 µM is 100%.

**Q.** And the inhibition at 50 µM [3, 5]?
**A.** The inhibition at 50 µM was 102%.

**Q.** What does the source list for `CCOC(=O)C1=C(C)N=c2sc(=Cc3cc(Cl)ccc3O)c(=O)n2C1c1ccc(OC)cc1` (stereo not drawn) [MMV665971]?
**A.** HepG2 Tox% @ 50 uM rep1 [1]: 100%; inhibition at 50 µM [2]: 99.7%; inhibition at 50 µM [3, 4]: 103%; inhibition at 50 µM [3, 5]: 104%

**Q.** Which “HepG2 Tox% @ 50 uM rep1” value [1] does the source give for `COc1ccc(-c2cc3c(nn2)-c2ccccc2C3=O)cc1` [MMV666026] here?
**A.** Its value is 21%.

**Q.** What about the inhibition at 50 µM [2] of the same molecule?
**A.** Its inhibition at 50 µM is 21.5%.

**Q.** What about the inhibition at 50 µM [3, 4] of the same molecule?
**A.** Its inhibition at 50 µM is 61%.

**Q.** And the inhibition at 50 µM [3, 5]?
**A.** The inhibition at 50 µM was 71%.

**Q.** How did the “HepG2 Tox% @ 50 uM rep2” value [1] turn out when `COCCNC(=O)c1ccc(OC2CCN(Cc3ccc(F)c(F)c3)CC2)c(Cl)c1` [MMV666072] was run?
**A.** The value was 97%.

**Q.** What about the inhibition at 50 µM [2] of the same molecule?
**A.** The inhibition at 50 µM was 90.7%.

**Q.** And the inhibition at 50 µM [3, 4]?
**A.** The inhibition at 50 µM was 100%.

**Q.** What about the inhibition at 50 µM [3, 5] of the same molecule?
**A.** Its inhibition at 50 µM is 102%.

**Q.** Which results are given for `CCOC(=O)C1=C(C)N=c2sc(=Cc3ccccc3O)c(=O)n2C1c1ccc(OC)c2ccccc12` (stereo not drawn) [MMV666604]?
**A.** HepG2 Tox% @ 50 uM rep1 [1]: -8%; inhibition at 50 µM [2]: -7.73%; inhibition at 50 µM [3, 4]: 53%; inhibition at 50 µM [3, 5]: 33%

**Q.** `CCOc1ccc(N2C(N)=NC(N)=NC2(C)C)cc1` [MMV667486] was tested. Which “HepG2 Tox% @ 50 uM rep1” value [1] did it give?
**A.** The value was -13%.

**Q.** And the inhibition at 50 µM [2]?
**A.** Its inhibition at 50 µM is -13.4%.

**Q.** And the inhibition at 50 µM [3, 4]?
**A.** The inhibition at 50 µM was 21%.

**Q.** And the inhibition at 50 µM [3, 5]?
**A.** The inhibition at 50 µM was 22%.

**Q.** For `CN(C)c1ccc(N2C(N)=NC(N)=NC2(C)C)cc1` [MMV667487], which “HepG2 Tox% @ 50 uM rep1” value [1] is on record?
**A.** Its value is -9%.

**Q.** What about the inhibition at 50 µM [2] of the same molecule?
**A.** Its inhibition at 50 µM is -8.72%.

**Q.** And the inhibition at 50 µM [3, 4]?
**A.** Its inhibition at 50 µM is 71%.

**Q.** What about the inhibition at 50 µM [3, 5] of the same molecule?
**A.** The inhibition at 50 µM was 82%.
